Among the data in patent US12281109B2 (Merck Sharp & Dohme LLC, priority 2019, dated 2025) are IC50 values, retold here.

Experiment [1] addresses T1, HDAC6 (Homo sapiens, UniProt Q9UBN7).
T1 sequence (Q9UBN7 1-1215): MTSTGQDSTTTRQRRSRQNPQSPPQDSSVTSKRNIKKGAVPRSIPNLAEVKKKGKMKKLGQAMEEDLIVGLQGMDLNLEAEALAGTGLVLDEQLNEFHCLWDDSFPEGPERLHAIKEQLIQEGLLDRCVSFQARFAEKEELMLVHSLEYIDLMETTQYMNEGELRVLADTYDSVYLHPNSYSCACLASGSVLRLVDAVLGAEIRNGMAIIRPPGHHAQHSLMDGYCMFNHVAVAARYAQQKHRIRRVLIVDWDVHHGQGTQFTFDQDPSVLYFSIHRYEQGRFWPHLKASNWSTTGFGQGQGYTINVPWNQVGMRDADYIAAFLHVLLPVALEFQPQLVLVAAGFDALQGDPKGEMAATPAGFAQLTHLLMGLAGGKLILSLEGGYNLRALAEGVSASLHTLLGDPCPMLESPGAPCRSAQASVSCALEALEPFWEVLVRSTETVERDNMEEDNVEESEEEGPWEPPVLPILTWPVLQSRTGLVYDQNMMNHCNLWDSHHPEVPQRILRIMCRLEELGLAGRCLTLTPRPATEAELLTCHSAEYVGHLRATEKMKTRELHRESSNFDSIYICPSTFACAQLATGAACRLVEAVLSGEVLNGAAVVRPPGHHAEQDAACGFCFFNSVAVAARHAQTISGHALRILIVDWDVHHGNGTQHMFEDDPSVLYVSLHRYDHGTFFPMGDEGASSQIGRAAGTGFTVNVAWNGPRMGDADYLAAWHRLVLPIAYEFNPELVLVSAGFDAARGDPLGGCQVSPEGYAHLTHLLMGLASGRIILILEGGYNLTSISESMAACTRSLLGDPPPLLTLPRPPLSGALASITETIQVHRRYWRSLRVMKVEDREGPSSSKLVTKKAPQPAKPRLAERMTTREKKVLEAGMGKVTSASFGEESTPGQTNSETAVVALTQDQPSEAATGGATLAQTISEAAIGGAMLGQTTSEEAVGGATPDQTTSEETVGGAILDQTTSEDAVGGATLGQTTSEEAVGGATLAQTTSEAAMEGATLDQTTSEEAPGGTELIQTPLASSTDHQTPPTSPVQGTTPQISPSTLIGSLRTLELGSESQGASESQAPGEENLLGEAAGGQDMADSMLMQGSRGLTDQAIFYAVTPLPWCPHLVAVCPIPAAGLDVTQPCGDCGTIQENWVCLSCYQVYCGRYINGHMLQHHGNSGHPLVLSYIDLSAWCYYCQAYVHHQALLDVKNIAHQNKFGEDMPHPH
As to the kind of experiment: Human HDAC enzyme inhibitor Fluor-De-Lys assay, HDAC6. The class given is biochemical. Particulars: 1.3 nM total enzyme, 2.5 μM substrate BML-KI104, 3 hours pre-incubation, 60 min reaction, 23° C., 4-parameter fit.
Source text: (§1) Human HDAC Enzyme Inhibitor Fluor-De-Lys Assay Materials
Recombinant human HDAC8 (BML-SE145-0100) and HDAC10 (BML-SE559-0050) enzymes, HDAC substrates BML-KI104 and BML-K1178, and HDAC developer solutions BML-KI105 and BML-KI176 were purchased from Enzo Life Sciences. […] HDAC inhibitor suberoylanilide hydroxamic acid (SAHA) was obtained from Indofine and trichostatin A (TSA) was obtained from Sigma-Aldrich.
(§2) The histone deacetylase activities of HDAC1, HDAC2, HDAC3, HDAC6, and HDAC8 were measured in modified FLUOR DE LYS assays in 384-well format. In this assay, HDAC enzymes are initially incubated with an F-acetyl (or -trifluoroacetyl)-L-lysine-containing substrate with a C-terminal amide having aminomethylcoumarin as the amine component. HDACs cleave the F-acetyl group, rendering the resulting product susceptible to AMC cleavage by trypsin. The released AMC is then detected by its fluorescence.
(§3) The HDAC3/SMRT assay employed buffer B, consisting of 20 mM HEPES, pH 8.0, 1 mM MgCl2, 50 mM NaCl, 2.7 mM KCl, 0.05% BSA, 0.005% Tween 20, and 10 μM IP4. […] The HDAC8 assay employed buffer D, consisting of 20 mM HEPES, pH 8.0, 1 mM MgCl2, 100 mM NaCl, 20 mM KCl, 0.1% n-octyl-β-D-glucoside (Anatrace) and 0.05% BSA. All steps were performed at room temperature (23° C.). The assay was performed by pre-incubating serial dilutions of test compounds with the target HDAC prior to initiation with substrate. Each compound was titrated in a 10-point dose response, using a 1:3 fold dilution scheme, with 0.15 ul of solution added by ECHO555 to the plate, followed by the addition of 20 μl of the appropriate HDAC isoform diluted in appropriate assay buffer. […] Final conditions used for each assay were: 1. […] The reactions were stopped and developed by addition of 30 ul of HDAC developer solution containing a saturating level of HDAC inhibitor as follows: 1.

The target of experiment [2] is human HDAC1 (Homo sapiens, UniProt Q13547). Description: Human HDAC enzyme inhibitor Fluor-De-Lys assay, HDAC1.
Chain of human HDAC1 (Q13547 whole entry): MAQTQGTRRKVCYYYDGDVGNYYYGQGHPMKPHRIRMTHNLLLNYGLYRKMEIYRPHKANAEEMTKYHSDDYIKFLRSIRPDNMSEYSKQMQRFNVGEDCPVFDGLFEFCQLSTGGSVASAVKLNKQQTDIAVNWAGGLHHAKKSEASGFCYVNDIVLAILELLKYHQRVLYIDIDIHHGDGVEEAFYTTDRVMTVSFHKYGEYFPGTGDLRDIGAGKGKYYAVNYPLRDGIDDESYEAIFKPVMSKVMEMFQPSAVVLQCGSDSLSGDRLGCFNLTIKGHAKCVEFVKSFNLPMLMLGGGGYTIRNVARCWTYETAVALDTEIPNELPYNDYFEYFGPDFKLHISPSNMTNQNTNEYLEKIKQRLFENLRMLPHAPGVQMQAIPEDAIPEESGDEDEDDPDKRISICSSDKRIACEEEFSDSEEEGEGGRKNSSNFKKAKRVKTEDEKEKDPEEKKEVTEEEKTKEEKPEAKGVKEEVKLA
Procedure: as §1, §2, §3
In experiment [3] the target is human HDAC2 (Homo sapiens, UniProt Q92769). As to the kind of experiment: Human HDAC enzyme inhibitor Fluor-De-Lys assay, HDAC2.
Chain of human HDAC2 (Q92769 whole entry): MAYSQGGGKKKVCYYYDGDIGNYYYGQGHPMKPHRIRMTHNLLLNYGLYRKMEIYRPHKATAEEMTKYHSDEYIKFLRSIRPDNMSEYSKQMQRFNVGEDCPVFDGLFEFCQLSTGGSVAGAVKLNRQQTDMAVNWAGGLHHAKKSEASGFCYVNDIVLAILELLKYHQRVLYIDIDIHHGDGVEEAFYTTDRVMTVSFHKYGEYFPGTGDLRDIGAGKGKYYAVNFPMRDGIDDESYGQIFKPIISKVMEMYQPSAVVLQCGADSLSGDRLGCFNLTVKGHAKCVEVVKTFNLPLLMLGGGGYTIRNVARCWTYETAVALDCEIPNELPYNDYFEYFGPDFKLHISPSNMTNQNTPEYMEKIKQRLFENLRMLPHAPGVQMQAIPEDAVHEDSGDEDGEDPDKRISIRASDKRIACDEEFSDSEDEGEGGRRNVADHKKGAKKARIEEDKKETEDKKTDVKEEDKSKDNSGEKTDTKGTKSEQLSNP
Procedure: as §1, §2, §3
Experiment [4] addresses human HDAC3/SMRT heterodimer (Homo sapiens, UniProt O15379). Description: Human HDAC enzyme inhibitor Fluor-De-Lys assay, HDAC3/SMRT.
Procedure: as §1, §2, §3

pIC50: −log10 of the molar value. Bounds are passed on as bounds.

Chain of human HDAC3/SMRT heterodimer (O15379 whole entry): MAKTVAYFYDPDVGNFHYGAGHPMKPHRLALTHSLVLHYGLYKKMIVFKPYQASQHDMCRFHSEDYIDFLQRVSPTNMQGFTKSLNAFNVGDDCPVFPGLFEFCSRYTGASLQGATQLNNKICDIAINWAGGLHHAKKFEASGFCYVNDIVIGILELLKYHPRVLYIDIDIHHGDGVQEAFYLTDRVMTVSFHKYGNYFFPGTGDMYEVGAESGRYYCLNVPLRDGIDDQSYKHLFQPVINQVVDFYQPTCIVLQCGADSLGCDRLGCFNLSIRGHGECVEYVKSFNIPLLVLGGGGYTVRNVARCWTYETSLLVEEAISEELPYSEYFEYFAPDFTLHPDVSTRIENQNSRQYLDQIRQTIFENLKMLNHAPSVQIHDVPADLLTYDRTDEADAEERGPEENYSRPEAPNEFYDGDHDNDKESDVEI
Chain of human HDAC3/SMRT heterodimer (Q9Y618 1-899 partner limits assumed): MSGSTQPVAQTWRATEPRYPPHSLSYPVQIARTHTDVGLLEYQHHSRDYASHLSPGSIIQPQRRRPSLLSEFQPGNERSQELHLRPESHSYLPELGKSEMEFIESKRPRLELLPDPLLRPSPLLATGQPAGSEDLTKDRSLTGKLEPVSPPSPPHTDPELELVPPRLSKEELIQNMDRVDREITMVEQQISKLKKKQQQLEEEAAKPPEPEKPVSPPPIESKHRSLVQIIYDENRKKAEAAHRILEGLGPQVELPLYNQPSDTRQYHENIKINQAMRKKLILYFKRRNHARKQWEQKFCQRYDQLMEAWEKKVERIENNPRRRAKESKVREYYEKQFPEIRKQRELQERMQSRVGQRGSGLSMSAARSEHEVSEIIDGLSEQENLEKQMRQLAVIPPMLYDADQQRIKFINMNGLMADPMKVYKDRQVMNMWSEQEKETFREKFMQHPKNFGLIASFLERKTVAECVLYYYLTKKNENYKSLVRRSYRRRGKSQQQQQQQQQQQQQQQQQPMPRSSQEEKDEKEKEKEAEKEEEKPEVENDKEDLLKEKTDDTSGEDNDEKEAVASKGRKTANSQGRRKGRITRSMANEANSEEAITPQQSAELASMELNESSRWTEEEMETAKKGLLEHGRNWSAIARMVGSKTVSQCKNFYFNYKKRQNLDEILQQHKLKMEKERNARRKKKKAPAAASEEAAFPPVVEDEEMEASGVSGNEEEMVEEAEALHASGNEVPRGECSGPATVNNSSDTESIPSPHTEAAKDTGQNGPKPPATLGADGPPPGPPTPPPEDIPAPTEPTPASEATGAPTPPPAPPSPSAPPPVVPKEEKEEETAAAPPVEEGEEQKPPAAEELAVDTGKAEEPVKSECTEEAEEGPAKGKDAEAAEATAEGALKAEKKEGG

In the case of `CSc1cc(F)ccc1C(=O)NCCCC[C@H](NC(=O)c1cncs1)c1ncc(-c2ccc3ccccc3c2)[nH]1` [Example 5, (S)-N-(5-(4-fluoro-2-(methylthio)benzamido)-1-(5-(naphthalen-2-yl)-1H-imidazol-2-yl)pentyl)thiazole-5-carboxamide], the pIC50 (usually −log10 of the IC50, conventionally taken in molar units) in experiment [1] is not above 4.35.

On to `Nc1ccc(F)c(F)c1C(=O)NCCCC[C@H](NC(=O)c1cncs1)c1ncc(-c2ccc3ccccc3c2)[nH]1` [Example 9, (S)-N-(5-(6-amino-2,3-difluorobenzamido)-1-(5-(naphthalen-2-yl)-1H-imidazol-2-yl)pntyl)thiazole-5-carboxamide], for which the negative logarithm of the IC50 (pIC50) in experiment [1] was not above 4.35; in experiment [2] it was 5.10; in experiment [3], 4.80; in experiment [4], 7.00.

`Nc1cc(F)c(F)cc1C(=O)NCCCC[C@H](NC(=O)c1cncs1)c1ncc(-c2ccc3ccccc3c2)[nH]1` [Example 27, (S)-N-(5-(2-amino-4,5-difluorobenzamido)-1-(5-(naphthalen-2-yl)-1H-imidazol-2-yl)pentyl)thiazole-5-carboxamide] gave a negative logarithm of the IC50 (pIC50) in experiment [1] not above 4.35.

For `CSc1cc([N+](=O)[O-])ccc1C(=O)NCCCC[C@H](NC(=O)c1cncs1)c1ncc(-c2ccc3ccccc3c2)[nH]1` [Example 43, (S)-N-(5-(2-(methylthio)-4-nitrobenzamido)-1-(5-(naphthalen-2-yl)-1H-imidazol-2-yl)pentyl)thiazole-5-carboxamide], the values for the pIC50 in experiment [2], in experiment [3] and in experiment [4] were not above 4.35, not above 4.35 and 5.15, respectively.

For `COc1ccc2[nH]c(C)c(C(C)C(=O)N[C@@H](CCCCNC(=O)c3ccccc3SC)c3ncc(-c4cc5ccccc5nc4OC)[nH]3)c2c1` (stereo partly drawn) [Example 58, N-((5S)-5-(2-(5-methoxy-2-methyl-1H-indol-3-yl)propanamido)-5-(5-(2-methoxyquinolin-3-yl)-1H-imidazol-2-yl)pentyl)-2-(methylthio)benzamide], the values for the negative-log IC50 (pIC50) in experiment [2], in experiment [3] and in experiment [4] were not above 4.35, not above 4.35 and 6.42, respectively.

As to `CCN1CCC2(CC1)C[C@@H]2C(=O)N[C@@H](CCCCNC(=O)c1ccccc1SC)c1ncc(-c2cc3ccccc3nc2OC)[nH]1` [Example 60, (S)-6-ethyl-N-((S)-1-(5-(2-methoxyquinolin-3-yl)-1H-imidazol-2-yl)-5-(2-(methylthio)benzamido)pentyl)-6-azaspiro[2.5]octane-1-carboxamide], in experiment [1], the pIC50 is 4.94.

In experiment [1], `COc1nc2ccccc2cc1-c1cnc([C@H](CCCCNC(=O)c2nc(C)ccc2O)NC(=O)c2cncs2)[nH]1` [Example 61, (S)-N-(5-(3-hydroxy-6-methylpicolinamido)-1-(5-(2-methoxyquinolin-3-yl)-1H-imidazol-2-yl)pentyl)thiazole-5-carboxamide] showed a pIC50 not above 4.35.

Consider `COc1nc2ccccc2cc1-c1cnc(C2(CCCCNC(=O)c3ccccc3SC)CCC(=O)N2)[nH]1` (centres unmarked) [Example 62, N-(4-(2-(5-(2-methoxyquinolin-3-yl)-1H-imidazol-2-yl)-5-oxopyrrolidin-2-yl)butyl)-2-(methylthio)benzamide], for which the negative-log IC50 (pIC50) was not above 4.35 in experiment [2], not above 4.35 in experiment [3] and 6.17 in experiment [4].

In the case of `COc1nc2ccccc2cc1-c1cnc(C2(CCCCNC(=O)c3ccc(F)cc3SC)CCC(=O)N2)[nH]1` (centres unmarked) [Example 63], the figures for the negative logarithm of the IC50 (pIC50) in experiment [2], in experiment [3] and in experiment [4] were not above 4.35, not above 4.35 and 6.02, respectively.
